“And” between values parts separate entries of the source, which are not always exact repeats. Equal entries are not always repeated.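 Cultured in 96-well plates, cells were exposed to test compound for 48 hours across five concentrations. GI50 = concentration required for 50% inhibition of growth.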 The source made the active and inactive calls. Rule as the data show it: active = GI50 up to about 1.1 µM and inactive = higher. Residues, ends and D or L forms follow the SMILES beside them. *: point of attachment. X38 = O=C(c1ccc(-c2ccc(Cl)cc2Cl)o1)*
Tests used:
Test in all cases: NCI anticancer screen, dose series, 48 h
SF-268 = tested on: SF-268
RXF 393 = tested on: RXF 393
HL-60 = tested on: HL-60
HCT-116 = tested on: HCT-116
MOLT-4 = tested on: MOLT-4
786-0 = tested on: 786-0
K562 = tested on: K562
A498 = tested on: A498
NCI-H23 = tested on: NCI-H23
LOX IMVI = tested on: LOX IMVI
Hs-578T = tested on: Hs-578T
SK-MEL-28 = tested on: SK-MEL-28
Malme-3M = tested on: Malme-3M
A549 = tested on: A549
SK-OV-3 = tested on: SK-OV-3
CCRF-CEM = tested on: CCRF-CEM
SF-539 = tested on: SF-539
UO-31 = tested on: UO-31
SK-MEL-5 = tested on: SK-MEL-5

Compound	GI50 (SF-268)	GI50 (RXF 393)	GI50 (HL-60)	GI50 (HCT-116)	GI50 (MOLT-4)	GI50 (786-0)	GI50 (K562)	GI50 (A498)	GI50 (NCI-H23)	GI50 (LOX IMVI)	GI50 (Hs-578T)	GI50 (SK-MEL-28)	GI50 (Malme-3M)	GI50 (A549)	GI50 (SK-OV-3)	GI50 (CCRF-CEM)	GI50 (SF-539)	GI50 (UO-31)	GI50 (SK-MEL-5)
C=C1C(=O)O[C@H]2C1C[C@@H](O)/C(C)=C/CC[C@@]1(C)O[C@H]21 (stereo not given in full)	39 µM (inactive)	7.62 µM (inactive)	2.87 µM (inactive)	8.93 µM (inactive)	6.93 µM (inactive)	10.5 µM (inactive)	6.37 µM (inactive)	25 µM (inactive)	13.6 µM (inactive)	9.16 µM (inactive)	31.3 µM (inactive)	15.2 µM (inactive)	4.08 µM (inactive)	> 55.1 µM (inactive)	49.7 µM (inactive)	3.17 µM (inactive)	19.9 µM (inactive)	18.7 µM (inactive)	16.1 µM (inactive)
O=C1NC(=O)[C@@]2(CC[C@@H](O)C2)c2ccncc21 [SESBANINE]	> 100 µM (inactive)	> 100 µM (inactive)	> 100 µM (inactive)	> 100 µM (inactive)	> 100 µM (inactive)	> 100 µM (inactive)	> 100 µM (inactive)	> 100 µM (inactive)	> 100 µM (inactive)	> 100 µM (inactive)	> 100 µM (inactive)	> 100 µM (inactive)	> 100 µM (inactive)	> 100 µM (inactive)	> 100 µM (inactive)	> 100 µM (inactive)	> 100 µM (inactive)	> 100 µM (inactive)	> 100 µM (inactive)
Cc1ccnc2sc3ccccc3c(=O)c12	32.7 µM (inactive)	23.9 µM (inactive)	30 µM (inactive)	32 µM (inactive)	26 µM (inactive)	65 µM (inactive)	42.8 µM (inactive)	29.8 µM (inactive)	59 µM (inactive)	29.5 µM (inactive)	27.3 µM (inactive)	48.9 µM (inactive)	51.9 µM (inactive)		37.3 µM (inactive)	40.9 µM (inactive)	33.4 µM (inactive)	25.4 µM (inactive)	24.7 µM (inactive)
NCC1OC(n2cnc3c(=O)[nH]c(N)nc32)C(O)C1O (stereo not given)	> 100 µM (inactive)	> 100 µM (inactive)	> 100 µM (inactive)	> 100 µM (inactive)	> 100 µM (inactive)	> 100 µM (inactive)	1 µM (active)	> 100 µM (inactive)	> 100 µM (inactive)	69.8 µM (inactive)	> 100 µM (inactive)	> 100 µM (inactive)	> 100 µM (inactive)	> 100 µM (inactive)	> 100 µM (inactive)	> 82.8 µM (inactive)	> 100 µM (inactive)	> 100 µM (inactive)	> 100 µM (inactive)
COC(=O)C(CC(C)C)NC(=O)C(Cc1ccccc1)NC(=O)C1CCCN1C(=O)C(CO)NC(=O)c1ccc(-c2ccc(Cl)cc2Cl)o1 (stereo not given) (X38-SPFL-OMe; configuration not given here)	40.3 µM (inactive)	17.8 µM (inactive)	19.5 µM (inactive)	22.6 µM (inactive)	22.2 µM (inactive)	25.1 µM (inactive)	27.8 µM (inactive)	24.5 µM (inactive)	27.7 µM (inactive)	21.8 µM (inactive)	35.5 µM (inactive)	52.1 µM (inactive)	42.1 µM (inactive)	26.1 µM (inactive)	1.11 µM (active)	36.8 µM (inactive)	24.3 µM (inactive)	23.9 µM (inactive)	17.3 µM (inactive)
COC(=O)c1cc(C)ccc1C1CN=NC12Cc1cccc(C)c1C2=O (stereo not given)	49.7 µM (inactive)	25 µM (inactive)	12.7 µM (inactive)	23.8 µM (inactive)	18.7 µM (inactive)	56.6 µM (inactive)	33.3 µM (inactive)	47.6 µM (inactive)	42.7 µM (inactive)	16.6 µM (inactive)	28.6 µM (inactive)	27.3 µM (inactive)	24.2 µM (inactive)	31.7 µM (inactive)		29.3 µM (inactive)	51.6 µM (inactive)	38.9 µM (inactive)	18 µM (inactive)
Cc1cc(CC(O)(C(F)(F)F)C(F)(F)F)cc(CC(O)(C(F)(F)F)C(F)(F)F)n1	2.7 µM (inactive)	4.24 µM (inactive)	3.02 µM (inactive)	2.34 µM (inactive)	3.24 µM (inactive)	2.29 µM (inactive)	4.28 µM (inactive)	2.76 µM (inactive)	2.51 µM (inactive)	2.42 µM (inactive)	2.67 µM (inactive)	3.03 µM (inactive)	1.56 µM (inactive)	3.3 µM (inactive)		3.21 µM (inactive)	3.43 µM (inactive)	2.05 µM (inactive)	1.72 µM (inactive)
CCOC(=O)c1ccc(-c2cccs2)n1C	> 100 µM (inactive)	> 66.5 µM (inactive)	> 69.5 µM (inactive)	> 95.1 µM (inactive)	39.4 µM (inactive)	> 100 µM (inactive)	60.5 µM (inactive)	> 100 µM (inactive)	> 86.7 µM (inactive)	> 77.8 µM (inactive)	43.4 µM (inactive)	> 100 µM (inactive)	> 67.1 µM (inactive)	> 100 µM (inactive)	> 87.3 µM (inactive)	71.8 µM (inactive)	> 100 µM (inactive)	43.7 µM (inactive)	33.7 µM (inactive)
CC(C)C(Cl)CC/C(CBr)=C(\Cl)CCl (stereo not given)	7.18 µM (inactive)	2.8 µM (inactive)	0.54 µM (active)	2.86 µM (inactive)	1.73 µM (inactive)	2.22 µM (inactive)	0.723 µM (active)	19.2 µM (inactive)	2.67 µM (inactive)	0.24 µM (active)	2.9 µM (inactive)	3.37 µM (inactive)	6.71 µM (inactive)	17.8 µM (inactive)	6.1 µM (inactive)	0.225 µM (active)	15.7 µM (inactive)	16.9 µM (inactive)	2.02 µM (inactive)
CC(=O)/C=C1\Nc2ccc([N+](=O)[O-])cc2N\C1=C/C(C)=O	47.8 µM (inactive)	64.3 µM (inactive)	56.6 µM (inactive)	28.8 µM (inactive)	21 µM (inactive)	58.1 µM (inactive)	50.8 µM (inactive)	25.4 µM (inactive)	25.1 µM (inactive)	73.5 µM (inactive)	26.7 µM (inactive)	51.1 µM (inactive)	25.7 µM (inactive)	38.3 µM (inactive)	90.8 µM (inactive)	17.2 µM (inactive)	46.6 µM (inactive)	> 100 µM (inactive)	24.7 µM (inactive)
CC(=O)OC(/C=C/c1ccccc1)P1(=O)N(CC(C)(C)C)[C@@H]2CCCC[C@H]2N1CC(C)(C)C (stereo not given in full)	10.9 µM (inactive) and 8.45 µM (inactive)	3.24 µM (inactive) and 6.08 µM (inactive)	5.37 µM (inactive) and 5.71 µM (inactive)	4.14 µM (inactive) and 3.53 µM (inactive)	3.63 µM (inactive) and 3.83 µM (inactive)	9.62 µM (inactive) and 7.38 µM (inactive)	5.02 µM (inactive) and 4.68 µM (inactive)	8.28 µM (inactive)	7.05 µM (inactive) and 5.18 µM (inactive)	11.2 µM (inactive) and 9.42 µM (inactive)	6.92 µM (inactive) and 8.67 µM (inactive)	17.7 µM (inactive) and 13.5 µM (inactive)	12.3 µM (inactive) and 13.1 µM (inactive)	5.05 µM (inactive) and 4.55 µM (inactive)	15.2 µM (inactive) and 8.71 µM (inactive)	4.81 µM (inactive) and 4.38 µM (inactive)	8.11 µM (inactive) and 13.6 µM (inactive)	7.18 µM (inactive) and 4.19 µM (inactive)	5.26 µM (inactive) and 6.3 µM (inactive)
CN(C)CCCc1c2ccccc2nc2ccc(Cl)cc12	14.6 µM (inactive)	14.1 µM (inactive)	16 µM (inactive)	10.9 µM (inactive)	17.9 µM (inactive)	11.7 µM (inactive)	19.1 µM (inactive)	19.2 µM (inactive)	30.3 µM (inactive)	14.2 µM (inactive)	16.5 µM (inactive)	18.3 µM (inactive)	15.4 µM (inactive)	13.9 µM (inactive)	20.7 µM (inactive)	9.16 µM (inactive)	16.6 µM (inactive)		14.4 µM (inactive)
O=C(Nc1ccc(-c2cn3ccccc3n2)cc1)c1cc(Br)ccc1O	> 100 µM (inactive)	> 100 µM (inactive)	> 100 µM (inactive)	> 100 µM (inactive)	> 100 µM (inactive)	> 100 µM (inactive)	> 100 µM (inactive)	> 100 µM (inactive)	> 100 µM (inactive)	> 100 µM (inactive)	> 100 µM (inactive)	> 100 µM (inactive)	> 100 µM (inactive)	> 100 µM (inactive)	> 100 µM (inactive)	> 100 µM (inactive)	> 100 µM (inactive)		> 100 µM (inactive)
Cc1ccc(-n2cc(-c3ccc(Cl)cc3)c3c2N=CN2N=C(c4ccco4)NC32)cc1 (stereo not given)	15.3 µM (inactive)	11.2 µM (inactive)	> 100 µM (inactive)	7.05 µM (inactive)		4.67 µM (inactive)	7.41 µM (inactive)	4.22 µM (inactive)	19.7 µM (inactive)	21.9 µM (inactive)	2.05 µM (inactive)	71 µM (inactive)	31.3 µM (inactive)	15 µM (inactive)	4.13 µM (inactive)	21 µM (inactive)	15.2 µM (inactive)	5.05 µM (inactive)	> 100 µM (inactive)

Source: ChEMBL document CHEMBL1201862, “PubChem BioAssay data set” (2004)
